Measured values as given in patent publication US8962844B2, “1,3,4-oxadiazole and 1,3,4-thiadiazole β-lactamase inhibitors” (priority 2012, dated 2015).
Where a name gives a salt, the structure may show the parent alone.

Assays:
[1] = tested on: bacterial strains that express the class D cephalosporinase OXA-15; assay: Standard BLI potentiation MIC / synergy MIC (sMIC) assays run in the presence of a β-lactam, OXA-15 expressing strains; type: cell-based, E. coli; conditions: BLI in combination with a β-lactam; comparison with Avibactam (comparator compound CCC)
From the text: (§1) Unless otherwise indicated, the activity of the BLI compounds can be described by the MIC value obtained from a Synergy MIC assay or a BLI potentiation assay (e.g as described herein), both of which are run in the presence of a β-lactam.
(§2) A set of β-lactamase expressing isogenic E. coli strains was constructed by cloning a β-lactamase gene into a customized derivative of pBR322 (GenBank Accession Number J01749) and transforming the engineered plasmids into E. coli. The NdeI restriction site within the plasmid backbone of pBR322 was removed to generate pBR322 ΔNdeI. The pBR322 ΔNdeI vector itself, minus the blaTEM-1 gene, was amplified using two primers: (1) pBR-Pbla 5′-cgcatatgactettectttttcaatattattg-3, SEQ ID 1, a primer with an engineered NdeI restriction site at the 3′ end of the blaTEM-1 promoter and (2) pBR-vec-1 5′-[…]-3′, SEQ ID 2, a primer with an engineered BamHI restriction site at the 3′ end of the blaTEM-1 open reading frame. The chloramphenicol resistance gene, cat, was generated by PCR amplification from pKD3 (GenBank Accession Number AY048742) using primers with an engineered NdeI restriction site at the 5′ end (Pbla-cat 5′-[…]-3′, SEQ ID 3) and an engineered BamHI restriction site at the 3′ end (Vec-1-cat 5′-[…]-3′, SEQ ID 4) of the resistance gene. The two PCR products, pBR322 ΔNdeI and cat were ligated together generating pBR-CBST (pBR322 ΔNdeI ΔTEM-1::cat Seq. ID 5) which retains both the pBR322 tetracycline resistance cassette, tetA, and the plasmid origin of replication but the blaTEM-1 gene was replaced by the cat gene.
(§3) Using this engineering strategy a number of plasmids producing β-lactamase genes from different classes (see below) were generated using synthetic genes with an engineered NdeI restriction site at the 5′ end and BamHI restriction site at the 3′ end of each gene (GenScript). Both the synthetic β-lactamase genes and cat gene were ligated into the NdeI/BamHI sites of the pBR322 ΔNdeI PCR product and transformed into electrocompetent E. coli ElectroMax DH10B (Invitrogen/Life Technologies). E. coli DH10B harboring the recombinant plasmids were selected on LB agar (supplemented with 25 μg/mL tetracycline) and single isolated colonies were then inoculated into 5 mL LB media (supplemented with 25 μg/mL tetracycline), and incubated at 37° C. with aeration (250 rpm) for 18 hrs. The cultures were frozen back at −80° C. in 20% glycerol. The DNA sequence of the cloned β-lactamase genes was confirmed. The β-lactamase gene expression in the recombinant E. coli strains was driven by the blaTEM-1 promoter in the pBR-CBST plasmid and was characterized by MIC profiling of the E. coli recombinant strains against comparator β-lactam/BLI combinations in broth microdilution assay.
(§4) The experimental protocol was performed according to Clinical and Laboratory Standards Institute (CLSI) guidelines with modifications as described below (CLSI guidelines can be derived from the CLSI document M07-A9 published in January 2012: “Methods for Dilution Antimicrobial Susceptibility Tests for Bacteria That Grow Aerobically; Approved Standard-Ninth Edition”).
(§5) To prepare for MIC testing, frozen glycerol stocks of clinical isolates (Klebsiella pneumoniae, Eschericia coli, Enterobacter spp, Citrobacter spp, or Pseudomonas aeruginosa) were used to streak for isolated colonies on rich, non-selective, tryptic soy agar containing 5% sheep's blood (TSAB). Frozen glycerol stocks of laboratory engineered, isogenic E. coli strains, which contain cloned β-lactamase expressing plasmids were used to streak for isolated colonies on rich, selective LB agar supplemented with 25 μg/mL tetracycline to maintain the plasmid. All strains were incubated at 37° C. for 18-24 hrs.
(§6) On the day of testing, primary cultures were started by scraping off 5-10 colonies from the TSAB plates containing clinical strains or the tetracycline supplemented LB plates containing engineered strains. […]

[2] = tested on: bacterial strains that express KPC β-lactamases; assay: Standard BLI potentiation MIC / synergy MIC (sMIC) assays run in the presence of a β-lactam, KPC expressing strains; type: cell-based; conditions: more active for at least one KPC strain and/or better spectrum of activity than Avibactam; BLI in combination with a β-lactam
From the text: as §1, §2, §3, §4, §5, §6

Structure (SMILES)	activity against bacterial strains that express the class D cephalosporinase OXA-15, compared with Avibactam [1]	activity and/or spectrum of activity against bacterial strains that express KPC β-lactamases, compared with Avibactam [2]
N[C@@H]1CN[C@H](c2nnc([C@@H]3CC[C@@H]4CN3C(=O)N4OS(=O)(=O)O)o2)C1 [Compound 760, (2S,5R)-2-(5-((2S,4S)-4-aminopyrrolidin-2-yl)-1,3,4-oxadiazol-2-yl)-7-oxo-1,6-diazabicyclo[3.2.1]octan-6-yl hydrogen sulfate]	more active than Avibactam	more active than Avibactam
O=C1N2C[C@@H](CC[C@H]2c2nnc([C@H]3[C@@H]4CNC[C@@H]43)o2)N1OS(=O)(=O)O [Compound 740, (2S,5R)-2-(5-(3-azabicyclo[3.1.0]hexan-6-yl)-1,3,4-oxadiazol-2-yl)-7-oxo-1,6-diazabicyclo[3.2.1]octan-6-yl hydrogen sulfate]	more active than Avibactam	more active than Avibactam
O=C1N2C[C@@H](CC[C@H]2c2nnc(C3CCNCC3)o2)N1OS(=O)(=O)O [Compound 711, (2S,5R)-7-oxo-2-(5-(piperidin-4-yl)-1,3,4-oxadiazol-2-yl)-1,6-diazabicyclo[3.2.1]octan-6-yl hydrogen sulfate]	more active than Avibactam	more active than Avibactam
NCCCCc1nnc([C@@H]2CC[C@@H]3CN2C(=O)N3OS(=O)(=O)O)o1 [Compound 735, (2S,5R)-2-(5-(4-aminobutyl)-1,3,4-oxadiazol-2-yl)-7-oxo-1,6-diazabicyclo[3.2.1]octan-6-yl hydrogen sulfate]	more active than Avibactam	more active than Avibactam
C[n+]1ccc(-c2nnc([C@@H]3CC[C@@H]4CN3C(=O)N4OS(=O)(=O)[O-])o2)cc1 [Compound 782, (2S,5R)-2-(5-(1-methylpyridin-1-ium-4-yl)-1,3,4-oxadiazol-2-yl)-7-oxo-1,6-diazabicyclo[3.2.1]octan-6-yl sulfate]	more active than Avibactam	more active than Avibactam
N=C(N)NC[C@@H](O)c1nnc([C@@H]2CC[C@@H]3CN2C(=O)N3OS(=O)(=O)O)o1 [Compound 731, (2S,5R)-2-(5-((R)-2-guanidino-1-hydroxyethyl)-1,3,4-oxadiazol-2-yl)-7-oxo-1,6-diazabicyclo[3.2.1]octan-6-yl hydrogen sulfate]	more active than Avibactam	more active than Avibactam
O=C1N2C[C@@H](CC[C@H]2c2nnc([C@H]3CNCCN3)o2)N1OS(=O)(=O)O [Compound 779, (2S,5R)-7-oxo-2-(5-((R)-piperazin-2-yl)-1,3,4-oxadiazol-2-yl)-1,6-diazabicyclo[3.2.1]octan-6-yl hydrogen sulfate]	more active than Avibactam	more active than Avibactam
O=C1N2C[C@@H](CC[C@H]2c2nnc(CN[C@@H]3CCNC3)o2)N1OS(=O)(=O)O [Compound 766, (2S,5R)-7-oxo-2-(5-(((R)-pyrrolidin-3-ylamino)methyl)-1,3,4-oxadiazol-2-yl)-1,6-diazabicyclo[3.2.1]octan-6-yl hydrogen sulfate]	more active than Avibactam	more active than Avibactam
O=C1N2C[C@@H](CC[C@H]2c2nnc(CCCNC3CCNCC3)o2)N1OS(=O)(=O)O [Compound 771, (2S,5R)-7-oxo-2-(5-(3-(piperidin-4-ylamino)propyl)-1,3,4-oxadiazol-2-yl)-1,6-diazabicyclo[3.2.1]octan-6-yl hydrogen sulfate]	more active than Avibactam	more active than Avibactam
N=C(N)N[C@H]1C[C@@H](c2nnc([C@@H]3CC[C@@H]4CN3C(=O)N4OS(=O)(=O)O)s2)C1 [Compound 784, (2S,5R)-2-(5-((1s,3R)-3-guanidinocyclobutyl)-1,3,4-thiadiazol-2-yl)-7-oxo-1,6-diazabicyclo[3.2.1]octan-6-yl hydrogen sulfate]	more active than Avibactam	more active than Avibactam
O=C1N2C[C@@H](CC[C@H]2c2nnc(C3CNC3)o2)N1OS(=O)(=O)O [Compound 708, (2S,5R)-2-(5-(azetidin-3-yl)-1,3,4-oxadiazol-2-yl)-7-oxo-1,6-diazabicyclo[3.2.1]octan-6-yl hydrogen sulfate]	more active than Avibactam	more active than Avibactam
NC1CC(NCc2nnc([C@@H]3CC[C@@H]4CN3C(=O)N4OS(=O)(=O)O)o2)C1 (stereo partly drawn) [Compound 755, (2S,5R)-2-(5-(((3-aminocyclobutyl)amino)methyl)-1,3,4-oxadiazol-2-yl)-7-oxo-1,6-diazabicyclo[3.2.1]octan-6-yl hydrogen sulfate]	more active than Avibactam	more active than Avibactam
N[C@@H]1CN[C@@H](c2nnc([C@@H]3CC[C@@H]4CN3C(=O)N4OS(=O)(=O)O)o2)C1 [Compound 763, (2S,5R)-2-(5-((2R,4S)-4-aminopyrrolidin-2-yl)-1,3,4-oxadiazol-2-yl)-7-oxo-1,6-diazabicyclo[3.2.1]octan-6-yl hydrogen sulfate]	more active than Avibactam	more active than Avibactam
N=C(N)N[C@H]1C[C@@H](c2nnc([C@@H]3CC[C@@H]4CN3C(=O)N4OS(=O)(=O)O)o2)C1 [Compound 749, (2S,5R)-2-(5-((1s,3R)-3-guanidinocyclobutyl)-1,3,4-oxadiazol-2-yl)-7-oxo-1,6-diazabicyclo[3.2.1]octan-6-yl hydrogen sulfate]	more active than Avibactam	more active than Avibactam
NC1CCN(CCc2nnc([C@@H]3CC[C@@H]4CN3C(=O)N4OS(=O)(=O)O)o2)CC1 [Compound 775, (2S,5R)-2-(5-(2-(4-aminopiperidin-1-yl)ethyl)-1,3,4-oxadiazol-2-yl)-7-oxo-1,6-diazabicyclo[3.2.1]octan-6-yl hydrogen sulfate]		more active than Avibactam
